Reference: patent publication US6391882B1, “4,5,6 and 7-indole and indoline derivatitives, their preparation and use” (H. Lundbeck A/S, priority 1998, dated 2002)
Counter-ions that a name gives are not always drawn. Like-named read-outs stand apart in the source and are kept apart here.

What was measured:
[1] = target: T1, cloned human 5-HT1A receptors (Homo sapiens, UniProt P08908); assay: Inhibition of 3H-5-CT binding to human 5-HT1A receptors
T1 construct: expressed in transfected cells; host or cells: HeLa cells (HA7)
T1 sequence (P08908 1-422): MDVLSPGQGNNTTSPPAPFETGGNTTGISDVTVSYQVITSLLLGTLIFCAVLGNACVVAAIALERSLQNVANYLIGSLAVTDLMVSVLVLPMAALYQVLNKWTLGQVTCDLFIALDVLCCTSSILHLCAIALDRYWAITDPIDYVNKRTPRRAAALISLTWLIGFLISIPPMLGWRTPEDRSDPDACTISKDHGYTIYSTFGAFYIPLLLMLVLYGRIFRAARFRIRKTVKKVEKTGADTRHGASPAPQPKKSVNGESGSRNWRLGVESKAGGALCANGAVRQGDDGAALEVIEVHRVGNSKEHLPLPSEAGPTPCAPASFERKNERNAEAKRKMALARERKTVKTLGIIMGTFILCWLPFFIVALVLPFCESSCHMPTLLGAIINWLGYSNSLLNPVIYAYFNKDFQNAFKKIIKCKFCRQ
Method: The affinity of the compounds of the invention to 5-HT1A receptors was determined by measuring the inhibition of binding of a radioactive ligand at 5-HT1A receptors as described in the following test:
Inhibition of ^3H-5-CT Binding to Human 5HT1A Receptors
By this method the inhibition by drugs of the binding of the 5-HT1A agonist ^3H-5-carboxamido tryptamine (^3H-5-CT) to cloned human 5-HT1A receptors stably expressed in transfected HeLa cells (HA7) (Fargin, A. et al, J. Biol. Chem., 1989, 264, 14848) is determined in vitro. The assay was performed as a modification of the method described by Harrington, M. A. et al, J. Pharmacol. Exp. Ther., 1994, 268, 1098. Human 5-HT1A receptors (40 μg of cell homogenate) were incubated for 15 minutes at 37° C. in 50 mM Tris buffer at pH 7.7 in the presence of ^3H-5-CT. Non-specific binding was determined by including 10 μM of metergoline. The reaction was terminated by rapid filtration through Unifilter GF/B filters on a Tomtec Cell Harvester. Filters were counted in a Packard Top Counter.

[2] = target: T2, Serotonin reuptake (whole rat brain synaptosomes) (Rattus norvegicus, UniProt P31652); assay: Inhibition of 3H-5-HT uptake into rat brain synaptosomes; assay type: biochemical
T2 construct: from tissue; host or cells: whole rat brain synaptosomes
T2 sequence (P31652 whole entry): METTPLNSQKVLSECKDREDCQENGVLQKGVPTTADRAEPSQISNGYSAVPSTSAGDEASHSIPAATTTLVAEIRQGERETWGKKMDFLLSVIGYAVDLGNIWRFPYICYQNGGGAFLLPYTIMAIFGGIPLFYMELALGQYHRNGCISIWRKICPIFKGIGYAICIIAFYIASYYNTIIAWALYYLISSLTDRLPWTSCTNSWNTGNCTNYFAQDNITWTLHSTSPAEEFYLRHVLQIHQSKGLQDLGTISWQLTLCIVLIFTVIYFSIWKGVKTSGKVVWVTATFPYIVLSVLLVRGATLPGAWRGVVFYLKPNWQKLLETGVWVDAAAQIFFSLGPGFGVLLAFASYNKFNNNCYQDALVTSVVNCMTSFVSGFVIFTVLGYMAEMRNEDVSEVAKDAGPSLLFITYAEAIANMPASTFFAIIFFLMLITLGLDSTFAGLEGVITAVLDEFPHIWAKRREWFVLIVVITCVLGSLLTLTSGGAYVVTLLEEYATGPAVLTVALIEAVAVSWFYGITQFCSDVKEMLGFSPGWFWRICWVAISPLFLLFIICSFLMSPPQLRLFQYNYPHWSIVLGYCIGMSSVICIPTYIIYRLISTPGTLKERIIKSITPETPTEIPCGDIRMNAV
Method: Inhibition of ^3H-5-HT Uptake Into Rat Brain Synaptosomes
Using this method the ability of drugs to inhibit the accumulation of ^3H-5-HT into whole rat brain synaptosomes is determined in vitro.

[3] = cloned human 5-HT1A receptors in transfected HeLa cells (HA7), 15 minutes at 37° C., pH 7.7
[4] = 3H-5-HT accumulation into whole rat brain synaptosomes, in vitro, read-out: Inhibition of Serotonin reuptake IC50

Compound	IC50 [1, 3] [nM]	IC50 [2] [nM]	melting point [°C]	also measured
Fc1ccc2occ(CCCCN3CCN(c4cccc5[nH]ccc45)CC3)c2c1 [Compound 1d, 1-(4-(5-Fluoro-3-benzofuranyl)-1-butyl)-4-(1H-indol-4-yl)piperazine]	2.5			IC50 [2, 4]: 31 nM
COC(=O)c1cc(N2CCN(CCc3coc4ccc(F)cc34)CC2)c2cc[nH]c2c1 [Compound 4h, 1-(2-(5-Fluoro-3-benzofuranyl)ethyl)-4-(6-methoxycarbonyl-1H-indol-4-yl)piperazine]	3100			IC50 [2, 4]: 71 nM
Brc1ccc2[nH]cc(CCN3CCN(c4ccc5[nH]ccc5c4)CC3)c2c1 [Compound 2t, 1-(2-(5-Bromo-1H-indol-3-yl)ethyl)-4-(1H-indol-5-yl)piperazine]	230	39		
Clc1ccc2occ(CCN3CCN(c4cccc5[nH]ccc45)CC3)c2c1 [Compound 4t, 1-(2-(5-Chloro-3-benzofuranyl)ethyl)-4-(1H-indol-4-yl)piperazine]	9.4	99		
Clc1ccc2[nH]cc(CCN3CCN(c4ccc5[nH]ccc5c4)CC3)c2c1 [Compound 2u, 1-(2-(5-Chloro-1H-indol-3-yl)ethyl)-4-(1H-indol-5-yl)piperazine]	310	20		
Cc1cccc2occ(CCN3CCN(c4cccc5[nH]ccc45)CC3)c12 [Compound 4r, 1-(1H-Indol-4-yl)-4-(2-(4-methyl-3-benzofuranyl)ethyl)piperazine]	10	12		
Clc1cccc2c(CCN3CCN(c4cccc5[nH]ccc45)CC3)coc12 [Compound 4v, 1-(2-(7-Chloro-3-benzofuranyl)ethyl)-4-(1H-indol-4-yl)piperazine]	4.3	4.4		
Fc1ccc2[nH]cc(CCN3CCN(c4cccc5[nH]ccc45)CC3)c2c1 [Compound 2c, 1-(2-(5-Fluoro-1H-indol-3-yl)ethyl)-4-(1H-indol-4-yl)piperazine]	27	2.3		
N#Cc1c[nH]c2cccc(N3CCN(CCc4c[nH]c5cc(Cl)ccc45)CC3)c12 [Compound 4o, 1-(2-(6-Chloro-1H-indol-3-yl)ethyl)-4-(3-cyano-1H-indol-4-yl)piperazine]	2.9	19		
Brc1cccc2c(CCN3CCN(c4cccc5[nH]ccc45)CC3)c[nH]c12 [Compound 2i, 1-(2-(7-Bromo-1H-indol-3-yl)ethyl)-4-(1H-indol-4-yl)piperazine]	5.4	5.9		
c1cc(N2CCN(Cc3coc4ccccc34)CC2)c2cc[nH]c2c1 [Compound 1b, 1-(3-Benzofuranylmethyl)-4-(1H-indol-4-yl)piperazine]	210			IC50 [2, 4]: 290 nM
N#Cc1c[nH]c2cccc(N3CCN(CCc4coc5ccc(F)cc45)CC3)c12 [Compound 4n, 1-(3-Cyano-1H-indol-4-yl)-4-(2-(5-fluoro-3-benzofuranyl)ethyl)piperazine]	5.7			IC50 [2, 4]: 65 nM
COC(=O)c1cc(N2CCN(CCc3c[nH]c4ccccc34)CC2)c2cc[nH]c2c1 [Compound 4f, 1-(2-(1H-indol-3-yl)ethyl)-4-(6-methoxycarbonyl-1H-indol-4-yl)piperazine]	1200	14		
Cc1oc2c(F)c(F)c(F)c(F)c2c1CCN1CCN(c2cccc3[nH]ccc23)CC1 [Compound 1i, 1-(2-(2-Methyl-4,5,6,7-tetrafluoro-3-benzofuranyl)ethyl)-4-(1H-indol-4-yl)piperaziine]	3.4			
c1cc(N2CCN(CCc3coc4ccccc34)CC2)c2cc[nH]c2c1 [Compound 1a, 1-(2-(3-Benzofuranyl)ethyl)-4-(1H-indol-4-yl)piperazine]	10	31		
Clc1ccc2c(CCN3CCC(c4cccc5[nH]ccc45)CC3)c[nH]c2c1 [Compound 5a]	14	19		
Fc1ccc2occ(CN3CCN(c4cccc5[nH]ccc45)CC3)c2c1 [Compound 4l, 1-(5-Fluoro-3-benzofuranylmethyl)-4-(1H-indol-4-4-yl)piperazine]	330			IC50 [2, 4]: 950 nM
Fc1ccc2occ(CCCN3CCN(c4cccc5[nH]ccc45)CC3)c2c1 [Compound 1h, 1-(3-(5-Fluoro-3-benzofuranyl)-1-propyl)-4-(1H-indol-4-yl)piperazine]	11			IC50 [2, 4]: 6.8 nM

Compound	IC50 [1, 3] [nM]	IC50 [2] [nM]	melting point [°C]	also measured
Clc1ccc2c(CCN3CCN(c4cccc5[nH]ccc45)CC3)n[nH]c2c1 [Compound 1k, 1-(2-(6-Chloro-3-indazolyl)ethyl)-4-(1H-indol-4-yl)piperazine]				IC50 [1]: 22 nM; IC50 [2, 4]: 150 nM
c1cc(N2CCN(CCc3n[nH]c4ccccc34)CC2)c2cc[nH]c2c1 [Compound 1j, 1-(2-(3-Indazolyl)ethyl)-4-(1H-indol-4-yl)piperazine]				IC50 [1]: 22 nM; IC50 [2, 4]: 360 nM
COC(=O)c1cc(N2CCN(CCc3c[nH]c4cc(Cl)ccc34)CC2)c2cc[nH]c2c1 [Compound 4g, 1-(2-(6-Chloro-1H-indol-3-yl)ethyl)-4-(6-methoxycarbonyl-1-H-indol-4-yl)piperazine]	350	23		
N#Cc1c[nH]c2cccc(N3CCN(CCc4coc5ccccc45)CC3)c12 (as salt: oxalate) [Compound 4p, 1-(2-(3-Benzofuranyl)ethyl)-4-(3-cyano-1H-indol-4-yl)piperazine]			221 to 223	
Cc1ccc2c(CCN3CCN(c4cccc5[nH]ccc45)CC3)coc2c1 (as salt: oxalate) [Compound 4u, 1-(1H-Indol-4-yl)-4-(2-(6-methyl-3-benzofuranyl)ethyl)piperazine]			190 to 192	
c1ccc2c(CCCN3CCN(c4cccc5[nH]ccc45)CC3)c[nH]c2c1 [Compound 1f, 1-(3-(1H-indol-3-yl)-1-propyl)-4-(1H-indol-4-yl)piperazine]	9.8			IC50 [2, 4]: 8.2 nM
N#Cc1cccc2c(CCN3CCN(c4cccc5[nH]ccc45)CC3)c[nH]c12 [Compound 1l, 1-(2-(7-Cyano-1H-indol-3-yl)ethyl)-4-(1H-indol-4-yl)piperazine]	2.5			
C#CCn1ccc2c(N3CCN(CCc4c[nH]c5ccccc45)CC3)cccc21 (as salt: fumarate)			193 to 195	
Cc1ccc2occ(CCN3CCN(c4cccc5[nH]ccc45)CC3)c2c1 (as salt: hydrochloride) [Compound 4q, 1-(1H-Indol-4-yl)-4-(2-(5-methyl-3-benzofuranyl)ethyl)piperazine]			258 to 260	
Fc1ccc2[nH]cc(CCN3CC=C(c4cccc5[nH]ccc45)CC3)c2c1 (as salt: fumarate) [Compound 2h, 1-(2-(5-Fluoro-1H-indol-3-yl)ethyl)-4-(1H-indol-4-yl)-1,2,3,6-tetrahydropyridine]			204 to 206	
Fc1ccc2occ(CCN3CCN(c4cccc5[nH]ccc45)CC3)c2c1 (as salt: oxalate) [Compound 1c, 1-(2-(5-Fluoro-3-benzofuranyl)ethyl)-4-(1H-indol-4-yl)piperazine]			196 to 197	
Brc1cccc2c(CCN3CCN(c4cccc5[nH]ccc45)CC3)c[nH]c12 (as salt: oxalate) [Compound 2i, 1-(2-(7-Bromo-1H-indol-3-yl)ethyl)-4-(1H-indol-4-yl)piperazine]			149 to 151	
C#CCn1ccc2c(N3CCN(CCc4c[nH]c5ccc(Br)cc45)CC3)cccc21			154 to 156	
COC(=O)c1cc(N2CCN(CCc3c[nH]c4cc(Cl)ccc34)CC2)c2cc[nH]c2c1 (as salt: oxalate) [Compound 4g, 1-(2-(6-Chloro-1H-indol-3-yl)ethyl)-4-(6-methoxycarbonyl-1-H-indol-4-yl)piperazine]			228 to 230	
N#Cc1c[nH]c2cccc(N3CCN(CCc4coc5ccc(F)cc45)CC3)c12 (as salt: fumarate) [Compound 4n, 1-(3-Cyano-1H-indol-4-yl)-4-(2-(5-fluoro-3-benzofuranyl)ethyl)piperazine]			235 to 237	
Fc1ccc2occ(CCCCN3CCN(c4cccc5[nH]ccc45)CC3)c2c1 (as salt: hydrochloride) [Compound 1d, 1-(4-(5-Fluoro-3-benzofuranyl)-1-butyl)-4-(1H-indol-4-yl)piperazine]			241 to 244	
N#Cc1c[nH]c2cccc(N3CCN(CCc4c[nH]c5cccc(Cl)c45)CC3)c12 [Compound 4x, 1-(2-(4-Chloro-1H-indol-3-yl)ethyl)-4-(3-cyano-1H-indol-4-yl)piperazine]	5.4			
